Test results from US20110039721A1, “METHOD FOR PREDICTION ABOUT CARCINOGENICITY OF SUBSTANCE IN RODENT” (Chemicals Evaluation and Research Institute, priority 2007, published 2011).

How the values were obtained:
[1] = tested on: mRNA expressed from the genes (A) to (D) in rat liver; assay: Behavior of genes (mRNA expression level, oligo-DNA microarray) in rat liver after 28-day oral administration; assay type: in vivo
Summary of the method: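 Male F344 SPF rats, 5 weeks old, four per group, received carcinogens, non-carcinogens or solvent vehicle by oral gavage once daily for 28 days. Liver total RNA was then extracted. Changes of ≥1.5-fold or ≤1/1.5 versus vehicle control, in a consistent direction across carcinogens, counted as significant.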

[2] = tested on: liver; conditions: in vivo; cited from earlier work
[3] = tested on: rodent; conditions: classification C+/C−; cited from earlier work
[4] = classification M+/M−; cited from earlier work

O=CCCCC=O [TS081, Glutaraldehyde]
+: Behavior of gene caused by administration of chemical substance ([1]; Gene No. 533, Rn.106184, group (C)) | Behavior of gene caused by administration of chemical substance ([1]; Gene No. 4973, Rn.118529, group (C)) | Behavior of gene caused by administration of chemical substance ([1]; Gene No. 6742, Rn.9779, group (C))
−: Behavior of gene caused by administration of chemical substance ([1]; Gene No. 154, Rn.185941, group (C)) | Behavior of gene caused by administration of chemical substance ([1]; Gene No. 725, Rn.108075, group (C)) | Behavior of gene caused by administration of chemical substance ([1]; Gene No. 813, Rn.201760, group (C)) | Behavior of gene caused by administration of chemical substance ([1]; Gene No. 893, Rn.164817, group (C)) | Behavior of gene caused by administration of chemical substance ([1]; Gene No. 1119, Rn.9757, group (C)) | Behavior of gene caused by administration of chemical substance ([1]; Gene No. 1131, Rn.144946, group (C)) | Behavior of gene caused by administration of chemical substance ([1]; Gene No. 1163, Rn.11766, group (C)) | Behavior of gene caused by administration of chemical substance ([1]; Gene No. 1334, Rn.120914, group (C)) | Behavior of gene caused by administration of chemical substance ([1]; Gene No. 1494, Rn.1430, group (B)) | Behavior of gene caused by administration of chemical substance ([1]; Gene No. 1562, Rn.14744, group (C)) | Behavior of gene caused by administration of chemical substance ([1]; Gene No. 1741, Rn.1647, group (C)) | Behavior of gene caused by administration of chemical substance ([1]; Gene No. 1993, Rn.18728, group (C)) | Behavior of gene caused by administration of chemical substance ([1]; Gene No. 2026, Rn.167075, group (A)) | Behavior of gene caused by administration of chemical substance ([1]; Gene No. 2045, Rn.19329, group (B)) | Behavior of gene caused by administration of chemical substance ([1]; Gene No. 2203, Rn.21240, group (B)) | Behavior of gene caused by administration of chemical substance ([1]; Gene No. 2494, Rn.23969, group (C)) | Behavior of gene caused by administration of chemical substance ([1]; Gene No. 2546, Rn.24561, group (C)) | Behavior of gene caused by administration of chemical substance ([1]; Gene No. 3776, Rn.43232, group (C)) | Behavior of gene caused by administration of chemical substance ([1]; Gene No. 3929, Rn.4620, group (C)) | Behavior of gene caused by administration of chemical substance ([1]; Gene No. 4095, Rn.119024, group (C)) | Behavior of gene caused by administration of chemical substance ([1]; Gene No. 4218, Rn.167075, group (A)) | Behavior of gene caused by administration of chemical substance ([1]; Gene No. 4846, Rn.144554, group (A)) | Behavior of gene caused by administration of chemical substance ([1]; Gene No. 5600, Rn.9836, group (A)) | Behavior of gene caused by administration of chemical substance ([1]; Gene No. 5634, Rn.9862, group (C)) | Behavior of gene caused by administration of chemical substance ([1]; Gene No. 5726, Rn.9939, group (D)) | Behavior of gene caused by administration of chemical substance ([1]; Gene No. 5878, Rn.143213, group (C)) | Behavior of gene caused by administration of chemical substance ([1]; Gene No. 6026, Rn.167685, group (C)) | Behavior of gene caused by administration of chemical substance ([1]; Gene No. 6182, Rn.5834, group (A)) | Behavior of gene caused by administration of chemical substance ([1]; Gene No. 6303, Rn.123063, group (C)) | Behavior of gene caused by administration of chemical substance ([1]; Gene No. 6620, Rn.120914, group (C))
Cr−: Liver carcinogenicity [2]
M+: Mutagenicity by Ames test [4]
C−: Carcinogenicity [3]
